Laboratory results reported in PMC5650142, “GPR40 partial agonists and AgoPAMs: Differentiating effects on glucose and hormonal secretions in the rodent” (PLoS ONE, 2017).
Several values for one entry are separate records, joined by “and”; a condition that tells them apart may be missing. Equal values may be shown once. Read-outs that look alike come from different tables or passages of the source.

Legend:
[1] = tested on: GK rats; experiment: GK rat acute efficacy (glucose, insulin, glucagon after single dose); assay type: in vivo; conditions: 100 mpk
Procedure: Ambient blood glucose was measured via tail snip with a glucometer (OneTouch Ultra, Lifescan Inc., Milpitas, CA). Body weights were then measured, and food was removed approximately 1 hr post lights on. Animals were sorted into treatment groups based on ambient glucose. At approximately 10 AM, glucose was measured and blood for insulin, glucagon, and drug exposure was collected. […] Each compound tested was dosed at its maximal effective dose determined through a series of dose titrations using this experimental paradigm (data not shown). Effects of treatment on glucose, insulin, and glucagon were measured at 1, 2, 4, and 24 hrs post dose. After the 4 hr blood collection, food was returned overnight and removed the next day at 1 hr post lights on.
(§1) Blood for insulin, glucagon, GLP-1, GIP, and PYY measurements was collected into K2EDTA Microtainer tubes (BD, Franklin Lakes, NJ) pre-treated with DPP4 inhibitor (Millipore, Billerica, MA) and cOmplete™ Protease Inhibitor Cocktail Tablets (Roche Diagnostics, Indianapolis, IN). Tubes were centrifuged for 10 minutes at 5000 RPM, and plasma was aliquotted for analysis. Plasma insulin levels were measured via EIA (Mesoscale Discovery ELISA Kit, Gaithersburg MD). Rat plasma total GLP-1 was measured using Total GLP-1 (ver.2) Assay Kit (Cat#: K150JVC). The measurement of active GLP-1 was carried out in a similar manner as that described for total GLP-1 assay with the exception that MSD Active GLP-1 (ver. 2) assay kit (Cat# K150JWC) was used. Rat plasma glucagon was measured using an in-house glucagon assay developed as a MSD format sandwich immunoassay (Merck & Co., Inc., MRL, Kenilworth, NJ USA). The antibody specificity was cross validated via mass- spec using procedures described in Lee et al. Briefly, MSD Streptavidin Gold plates were coated with 2 μg/ml biotin mouse monoclonal antibody generated to glucagon. Test samples were added to the plates and a separate Sulfo- tagged monoclonal antibody was used to detect the captured glucagon protein (2 μg/ml). The ELISA was carried out in the standard reagents in the MSD format. The plate was read on the SECTOR Imager 6000 Reader. Metabolic hormones GIP (Gastric Inhibitory Polypeptide) and PYY (Peptide YY) were measured in rat plasma using the Rat Metabolic Magnetic Bead Panel (EMD Millipore, Billerica, MA). The assay was performed according to manufacturer protocol.

[2] = tested on: GK rats; experiment: GK rat chronic efficacy (28 days: glucose, food intake, body weight, GLP-1, GIP, PYY, insulin, glucagon); assay type: in vivo; conditions: 30 mpk, day 28, fed, individual animals
Procedure: At the start of the study, fed (ambient) blood glucose was measured via glucometer at 1 h post lights on, and animals were selected and sorted into treatment groups based on ambient glucose (n = 10/ GK group, n = 6 WKY control). Blood for baseline incretin measurements was collected in the PM via tail vein. Rats were dosed via oral gavage (PO) at a volume of 5 ml/kg daily at approximately 12:30 PM with either vehicle (0.5% methylcellulose), AP1 at 30 mg/kg, or AP3 at 30 mg/kg. MK-8666, a GPR40 partial agonist synthesized at Merck & Co., Inc., Kenilworth, NJ USA [13], at 30 mg/kg was administered in feed (Research Diets, New Brunswick, NJ) and provided ad lib. All compounds were administered to achieve maximal efficacious exposures determined in acute efficacy studies similar to those acute studies described above. In brief, partial agonists and AgoPAMs were titrated in the acute GK rat experiment described above and the exposure associated with maximal efficacy in glucose lowering was noted. Partial agonists and AgoPAMs were then dosed to maintain those exposures up to 24h post dose. […] Rats from this group and the WKY controls were administered vehicle PO when the vehicle, AP1, and AP3 groups were treated. Fed blood glucose, food intake, and body weights were determined on days 10, 17, 23, and 28 of study at 2 h post lights on. Immediately after these measures were taken on days 10, 17, 23, and 28, food was removed. After 5h of fasting, animals were dosed with vehicle or compound and allowed to rest for an additional hour. Glucose, GLP-1, GIP, and PYY were measured after 6h of fasting at 1 hr post dose. Fed blood glucose is described by animals having had ad libidum access to feed up till the time of sampling and occurred at 2h post-lights on where rats were nearing the end of their nocturnal feeding cycle. Fasted blood glucose is described by blood glucose sampled after 6h of fasting where food was removed at 2h post lights on. Please note that the fasted sample was taken 1h post oral dosing. On day 10, blood was collected from the tail vein (20 μl) after morning glucose measures and after 6 hour fast from a subset of n = 3 rats per treatment group to determine the fed and fasted exposure of the compounds in circulation. The blood was stored at 4°C in 0.1 M sodium citrate for subsequent analysis of drug exposure.
as §1, with “protocol. […]” for “protocol.”

[3] = molecular target: T1, rat GPR40 (Rattus norvegicus, UniProt Q8K3T4); experiment: Rat GPR40 IP1 accumulation assay; assay type: cell-based
T1 construct: expressed in transfected cells; host or cells: CHO-K1 (methods)
Procedure: (§2) Stable cell lines expressing human GPR40 (hGPR40/HEK293), mouse GPR40 (mGPR40/CHO-K1), and rat GPR40 (rGPR40/CHO-K1) were cultured in DMEM media supplemented with 10% FBS, glutamine, non-essential amino acids, and penicillin/streptomycin. hGPR40/HEK293 & mGPR40/CHO-K1 cell media was supplemented with […] G418 (Life Technologies), while rGPR40/CHO-K1 cells were grown in […] blasticidin plus […] hygromycin (Life Technologies). Cell stocks were maintained and grown in a sub-confluent state using standard cell culture procedures. The day before the experiment, the cells were harvested with non-enzymatic cell dissociation buffer and re-suspended in DMEM supplemented with 10% FBS, glutamine, non-essential amino acids, penicillin/streptomycin at 0.15, 0.2 and 0.3 million cells per ml for human, mouse, and rat GPR40, respectively. […] The seeded plates were incubated overnight at 37 C.
(§3) On the day of the experiment, the growth media was removed from the assay by gently patting the assay plates on an absorbent sheet and 10 μl of IP1 stimulation buffer (Cis Bio IP-one Tb HTRF kit) supplemented with 50 mM LiCl is added to each well. Test compounds dissolved in DMSO were serially diluted in ½ log increments starting from 2 mM or 0.2 mM and 50 nl of the compound dilution was acoustically added to each well (final starting concentration 10 μM or 1 μM). Plates were then incubated for 60 minutes at room temperature and 10 μl of detection buffer (prepared as described in the Tb kit) is added to each well. The plates are then incubated one additional hour at room temperature. […] For each assay, a standard curve plate in which IP1 is titrated is also included. […] The percent activity at each concentration of test compound is determined using 0% activation (basal activity) determined in those wells that contain DMSO alone, while 100% activity is determined in wells that contained a concentration of a partial allosteric agonist know to activate GPR40. The % activity is then plotted versus the concentration of test compound and the dose response curve fitted to a standard 4-parameter non-linear regression model using a custom in-house developed software package (Merck & Co., Inc., MRL, Kenilworth, NJ, USA). Maximal % activity and EC50 are then determined for each test compound.

[4] = molecular target: T2, mouse GPR40 (Mus musculus, UniProt Q76JU9); experiment: Mouse GPR40 IP1 accumulation assay; assay type: cell-based
T2 construct: expressed in transfected cells; host or cells: CHO-K1 (methods)
Procedure: as §2, §3

T2 sequence (Q76JU9 whole entry): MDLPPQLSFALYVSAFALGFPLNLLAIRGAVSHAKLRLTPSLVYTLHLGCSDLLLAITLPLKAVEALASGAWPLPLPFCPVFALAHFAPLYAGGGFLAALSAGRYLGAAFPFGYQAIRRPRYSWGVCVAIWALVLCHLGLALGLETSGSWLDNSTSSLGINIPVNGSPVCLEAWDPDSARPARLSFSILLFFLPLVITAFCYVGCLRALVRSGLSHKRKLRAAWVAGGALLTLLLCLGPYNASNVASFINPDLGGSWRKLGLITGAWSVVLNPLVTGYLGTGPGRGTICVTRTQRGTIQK
T1 sequence (Q8K3T4 whole entry): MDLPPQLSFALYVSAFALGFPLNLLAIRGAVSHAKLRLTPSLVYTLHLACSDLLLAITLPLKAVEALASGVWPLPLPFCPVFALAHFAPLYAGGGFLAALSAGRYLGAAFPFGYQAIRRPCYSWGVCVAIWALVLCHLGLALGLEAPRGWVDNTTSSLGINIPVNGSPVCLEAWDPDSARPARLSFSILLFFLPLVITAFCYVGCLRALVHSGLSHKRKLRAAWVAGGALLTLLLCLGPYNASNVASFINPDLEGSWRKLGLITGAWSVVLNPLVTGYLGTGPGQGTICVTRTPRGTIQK

Cc1cc(OCCCS(C)(=O)=O)cc(C)c1-c1cccc(COc2ccc3c(c2)OC[C@H]3CC(=O)O)c1 [TAK]
Plasma Glucagon Over Time (Fig 2C) ([1]; time 0, individual animals): 75.2366 pg/mL and 59.5419 pg/mL and 46.7473 pg/mL and 119.065 pg/mL and 82.5246 pg/mL and 83.5453 pg/mL and 74.4881 pg/mL and 90.3444 pg/mL
Plasma Insulin Over Time (Fig 2B) ([1]; time 0, individual animals): 2.655 ng/mL and 1.525 ng/mL and 2.703 ng/mL and 2.889 ng/mL and 1.936 ng/mL and 1.972 ng/mL and 2.503 ng/mL and 2.551 ng/mL
Plasma Glucagon Over Time (Fig 2C) ([1]; time 1, individual animals): 168.277 pg/mL and 120.989 pg/mL and 104.57 pg/mL and 184.364 pg/mL and 130.682 pg/mL and 112.051 pg/mL and 81.0192 pg/mL and 132.45 pg/mL
Plasma Insulin Over Time (Fig 2B) ([1]; time 1, individual animals): 3.3854 ng/mL and 2.854 ng/mL and 4.397 ng/mL and 4.229 ng/mL and 2.551 ng/mL and 2.055 ng/mL and 2.175 ng/mL and 2.74 ng/mL
Plasma Glucagon Over Time (Fig 2C) ([1]; time 2, individual animals): 165.323 pg/mL and 244.359 pg/mL and 138.27 pg/mL and 211.843 pg/mL and 72.9369 pg/mL and 186.55 pg/mL and 94.6201 pg/mL and 160.38 pg/mL
Plasma Insulin Over Time (Fig 2B) ([1]; time 2, individual animals): 2.858 ng/mL and 2.437 ng/mL and 3.152 ng/mL and 3.268 ng/mL and 1.276 ng/mL and 1.644 ng/mL and 1.778 ng/mL and 2.202 ng/mL
Plasma Glucagon Over Time (Fig 2C) ([1]; time 4, individual animals): 85.2047 pg/mL and 62.7395 pg/mL and 105.981 pg/mL and 18.1244 pg/mL and 124.809 pg/mL and 199.712 pg/mL and 103.043 pg/mL and 175.312 pg/mL
Plasma Insulin Over Time (Fig 2B) ([1]; time 4, individual animals): 1.494 ng/mL and 1.787 ng/mL and 2.636 ng/mL and 1.66 ng/mL and 1.848 ng/mL and 1.214 ng/mL and 2.191 ng/mL and 1.8763 ng/mL
Plasma Glucagon Over Time (Fig 2C) ([1]; time 24, individual animals): 86.4436 pg/mL and 115.249 pg/mL and 67.5931 pg/mL and 36.8268 pg/mL and 81.8289 pg/mL and 118.991 pg/mL and 35.1523 pg/mL and 94.7909 pg/mL
Plasma Insulin Over Time (Fig 2B) ([1]; time 24, individual animals): 1.093 ng/mL and 1.2004 ng/mL and 2.002 ng/mL and 0.9338 ng/mL and 1.238 ng/mL and 1.808 ng/mL and 1.437 ng/mL and 1.841 ng/mL

C[C@H](C(=O)O)[C@H](c1ccc2c(c1)O[C@H](C1CN(Cc3cc(C(F)(F)F)ccc3C(F)(F)F)C1)CC2)C1CC1 [P3]
Fed glucose on day 28 (Fig 3B) [2]: 141 and 132 and 113 and 119 and 112 and 106 and 116 and 101

CC#C[C@@H](CC(=O)O)c1ccc(OCc2cccc(-c3ccc(C(F)(F)F)cc3)c2)cc1 [AMG-837, reference compound]
EC50 ([3]; EC50 (nM), Rat GPR40, Functional Assay, individual determinations): 1.9 nM and 1.6 nM and 1.2 nM and 0.9 nM and 1.8 nM and 1.1 nM
EC50 ([3]; individual determinations, read-out: EC50 (nM), Rat GPR40, Functional Assay): 1.3 nM and 2.2 nM
EC50 ([3]; mean ± SD, n = 2–20, IP accumulation, read-out: Potency [EC50, nM] ± SD, Rat): 1.5 ± 0.41 nM
EC50 ([4]; EC50 (nM), Mouse GPR40, Functional Assay, individual determinations): 2.6 nM and 3.6 nM and 1.7 nM and 1.1 nM and 1.8 nM
EC50 ([4]; Potency [EC50, nM] ± SD, Mouse, mean ± SD, n = 2–20, IP accumulation): 1.9 ± 0.76 nM
EC50 ([4]; individual determinations, read-out: EC50 (nM), Mouse GPR40, Functional Assay): 2 nM
